Measurements: PubChem BioAssay AID504422 (Sanford-Burnham Center for Chemical Genomics, 2011)
Activity calls are given as the source filed them. No rule for the calls is given here.

Tested on: human hepatocytes, lipid droplet formation imaging
Experiment: blockers of lipid droplet accumulation in hepatocytes – imaging, human hepatocytes, SAR follow-up (AID 504422)

Row | SMILES | IC50
1 | CCOc1ccc(CCNC(=O)COC(=O)c2cc(OC)cc(OC)c2)cc1OCC | > 10 µM (inactive)
2 | COc1ccc(CCNC(=O)CSc2cc(=O)n(C)c3ccccc23)cc1OC | > 10 µM (inactive)
3 | COc1cc(CNC(=O)CSc2cc(=O)n(C)c3ccccc23)cc(OC)c1OC | > 10 µM (inactive)
4 | CCOc1ccc(CCNC(=O)c2ccc(N3CCOCC3)s2)cc1OCC | > 10 µM (inactive)
5 | CCn1c(C(=O)NCc2cc(OC)c(OC)c(OC)c2)cc2sccc21 | > 10 µM (inactive)
6 | CCOc1cc(CCNC(=O)c2cc(-c3ccccc3)c(N3CCOCC3)s2)ccc1OC | > 10 µM (inactive)
7 | COc1ccc(CCNC(=O)COC(=O)c2cc(OC)c(OC)cc2OC)cc1OC | > 10 µM (inactive)
8 | CCOc1ccc(CCNC(=O)c2cc3sccc3[nH]2)cc1OCC | > 10 µM (inactive)
9 | CCOc1ccc(CCNC(=O)CCOc2cc(C)ccc2C)cc1OCC | > 10 µM (inactive)
10 | Cn1c(=O)cc(SCC(=O)Nc2ccc3c(c2)OCO3)c2ccccc21 | > 10 µM (inactive)
11 | CCOc1ccc(CCNC(=O)CSc2cc(=O)n(C)c3ccccc23)cc1OCC | > 10 µM (inactive)
12 | CCOc1ccc(CCNC(=O)c2cc3ccccc3n2C)cc1OC | > 10 µM (inactive)
13 | CCOc1ccc(CCNC(=O)CSc2cc(=O)n(CC)c3ccccc23)cc1OCC | > 10 µM (inactive)
14 | CCOc1cc(CCNC(=O)c2ccc(N3CCOCC3)s2)ccc1OC | > 10 µM (inactive)
15 | CCOc1ccc(CCNC(=O)CSc2cc(=O)n(C)c3cc(Cl)ccc23)cc1OCC | > 10 µM (inactive)
16 | CCn1c(C(=O)NCCc2ccc(OC)c(OC)c2)cc2sc(Cl)cc21 | > 10 µM (inactive)
17 | CCOc1ccc(CCNC(=O)CCc2nc(-c3ccc(OC)cc3)no2)cc1OCC | > 10 µM (inactive)
18 | CCOc1ccc(CCNC(=O)Cn2cccc2C(=O)c2ccccc2)cc1OCC | > 10 µM (inactive)
19 | CCOc1ccc(CCNC(=O)Cn2nc(C)c3c(C)n(-c4ccccc4)nc3c2=O)cc1OCC | > 10 µM (inactive)
20 | COc1ccc(CNC(=O)c2ccc(N3CCOCC3)s2)cc1OC | > 10 µM (inactive)
21 | CCOc1ccc(CCNC(=O)c2cc3sccc3n2C)cc1OCC | > 10 µM (inactive)
22 | CCn1c(C(=O)Nc2ccc(OC)c(OC)c2)cc2ccsc21 | > 10 µM (inactive)
23 | CCOc1ccc(CCNC(=O)CCC(=O)N2CCOc3ccc(C)cc32)cc1OCC | > 10 µM (inactive)
24 | Cn1c(C(=O)NCCc2ccc3c(c2)OCO3)cc2ccccc21 | > 10 µM (inactive)
25 | COc1ccc(CCNC(=O)c2cc3ccccc3n2C)cc1OC | > 10 µM (inactive)
26 | CCOc1cc(CCNC(=O)c2cc3ccsc3n2C)ccc1OC | > 10 µM (inactive)

Row | SMILES | IC50
27 | CCOc1ccc(CCNC(=O)CCc2nnc3ccc(N4CCCC4)nn23)cc1OCC | > 10 µM (inactive)
28 | COc1ccc(CNC(=O)c2cc(-c3ccccc3)c(N3CCOCC3)s2)cc1OC | > 10 µM (inactive)
29 | CCOc1ccc(CCNC(=O)c2cc3ccsc3n2C)cc1OC | > 10 µM (inactive)
30 | CCOc1ccc(CCNC(=O)c2cc3ccsc3n2CC)cc1OC | > 10 µM (inactive)
31 | CCn1c(C(=O)Nc2ccc3c(c2)OCO3)cc2ccsc21 | > 10 µM (inactive)
32 | COc1ccc(CNC(=O)CSc2cc(=O)n(C)c3ccccc23)cc1OC | > 10 µM (inactive)
33 | CCOc1ccc(CCNC(=O)c2nnc(Cc3ccc(F)cc3)o2)cc1OCC | > 10 µM (inactive)
34 | CCOc1ccc(CCNC(=O)c2cc(-c3ccccc3)c(N3CCOCC3)s2)cc1OCC | > 10 µM (inactive)
35 | COc1cc(CNC(=O)c2cc3ccsc3n2C)cc(OC)c1OC | > 10 µM (inactive)
36 | CCOc1ccc(CCNC(=O)CN2C(=O)c3cccnc3Oc3ccc(C)cc32)cc1OCC | > 10 µM (inactive)
37 | CCOc1ccc(CCNC(=O)CCC(=O)N2CCOc3ccccc32)cc1OCC | > 10 µM (inactive)
38 | CCOc1cc(CCNC(=O)c2cc3sccc3[nH]2)ccc1OC | > 10 µM (inactive)
39 | CCOc1cc(CCNC(=O)c2cc3sccc3n2CC)ccc1OC | > 10 µM (inactive)
40 | Cn1c(=O)cc(SCC(=O)NCc2ccc3c(c2)OCO3)c2ccccc21 | > 10 µM (inactive)
41 | COc1ccc(NC(=O)c2cc3ccsc3n2C)cc1OC | > 10 µM (inactive)
42 | COc1ccc(CCNC(=O)c2cc(-c3ccccc3)c(N3CCOCC3)s2)cc1OC | > 10 µM (inactive)
43 | CCOc1ccc(CCNC(=O)c2cc3sc(Cl)cc3n2C)cc1OCC | > 10 µM (inactive)
44 | CCOc1ccc(CCNC(=O)c2cc3ccsc3n2C)cc1OCC | > 10 µM (inactive)
45 | O=C(NCCc1ccc2c(c1)OCO2)c1ccc(N2CCOCC2)s1 | > 10 µM (inactive)
46 | Cn1c(C(=O)NCc2ccc3c(c2)OCO3)cc2ccsc21 | > 10 µM (inactive)
47 | COc1ccc(CCNC(=O)Cn2cccc2C(=O)c2ccccc2C)cc1OC | > 10 µM (inactive)
48 | CCOc1cc(CCNC(=O)c2cc3ccccc3n2C)ccc1OC | > 10 µM (inactive)
49 | CCOc1ccc(CCNC(=O)COc2cc(=O)n(C)c3ccccc23)cc1OCC | > 10 µM (inactive)
50 | CCOc1cc(CCNC(=O)COc2cc(=O)n(C)c3ccccc23)ccc1OC | > 10 µM (inactive)
51 | CCOc1ccc(CCNC(=O)c2cc3ccsc3n2CC)cc1OCC | > 10 µM (inactive)
52 | CCn1c(C(=O)NCc2cc(OC)c(OC)c(OC)c2)cc2ccsc21 | > 10 µM (inactive)

Row | SMILES | IC50
53 | CCOc1ccc(CCNC(=O)CCC(=O)N2CCSc3ccccc32)cc1OCC | > 10 µM (inactive)
54 | CCOc1ccc(CCNC(=O)Cn2cccc2C(=O)c2ccccc2C)cc1OCC | > 10 µM (inactive)
55 | CCOc1ccc(CCNC(=O)c2cc3sccc3n2CC)cc1OCC | > 10 µM (inactive)
56 | COc1ccc(CCNC(=O)c2cc3sc(Cl)cc3n2C)cc1OC | > 10 µM (inactive)
57 | CCOc1ccc(CCNC(=O)CN2CCN(Cc3ccccc3C)C2=O)cc1OCC | > 10 µM (inactive)
58 | CCn1c(C(=O)Nc2ccc(OC)c(OC)c2)cc2sccc21 | > 10 µM (inactive)
59 | CCOc1ccc(CCNC(=O)COC(=O)c2cc(OC)c(OC)c(OC)c2)cc1OCC | > 10 µM (inactive)
60 | COc1ccc(CNC(=O)c2cc3ccsc3n2C)cc1OC | > 10 µM (inactive)
61 | CCOc1cc(CCNC(=O)CSc2cc(=O)n(C)c3ccccc23)ccc1OC | > 10 µM (inactive)
62 | CCOc1ccc(CCNC(=O)c2cc(-c3ccccc3)c(N3CCOCC3)s2)cc1OC | > 10 µM (inactive)
63 | COc1ccc(CCNC(=O)c2cc(-c3ccccc3)c(N3CCOCC3)s2)c(OC)c1OC | > 10 µM (inactive)
64 | CCOc1ccc(CCNC(=O)Cn2ncn3nc(-c4ccc(OC)cc4)cc3c2=O)cc1OCC | > 10 µM (inactive)
65 | CCOc1ccc(CCNC(=O)c2cc3sccc3n2CC)cc1OC | > 10 µM (inactive)
66 | Cn1c(C(=O)Nc2ccc3c(c2)OCO3)cc2ccsc21 | > 10 µM (inactive)
67 | CCn1c(C(=O)NCc2ccc3c(c2)OCO3)cc2sccc21 | > 10 µM (inactive)
68 | O=C(NCCc1ccc2c(c1)OCO2)c1cc(-c2ccccc2)c(N2CCOCC2)s1 | > 10 µM (inactive)
69 | CCOc1ccc(CCNC(=O)COC(=O)c2ccc(OC)c(OC)c2OC)cc1OCC | > 10 µM (inactive)
70 | COc1ccc(CCNC(=O)c2cc3sccc3n2C)cc1OC | > 10 µM (inactive)
71 | CCn1c(C(=O)NCc2ccc(OC)c(OC)c2)cc2ccsc21 | > 10 µM (inactive)
72 | CCn1c(C(=O)NCCc2ccc(OC)c(OC)c2)cc2ccsc21 | > 10 µM (inactive)
73 | Cn1c(=O)cc(SCC(=O)NCCc2ccc3c(c2)OCO3)c2ccccc21 | > 10 µM (inactive)
74 | CCOc1ccc(CCNC(=O)CCc2nnc3ccc(N4CCCCC4)nn23)cc1OCC | > 10 µM (inactive)
75 | O=C(NCCc1ccc2c(c1)OCO2)c1cc2sccc2[nH]1 | > 10 µM (inactive)
76 | CCOc1ccc(CCNC(=O)CSc2cc(=O)n(C)c3ccccc23)cc1OC | > 10 µM (inactive)
77 | CCOc1ccc(CCNC(=O)C2CC=CCC2C(=O)OC(C)C)cc1OCC (stereo not drawn) | > 10 µM (inactive)
78 | CCn1c(C(=O)Nc2ccc3c(c2)OCO3)cc2sccc21 | > 10 µM (inactive)
